Three compounds from paper PMC8878317, “Chemogenomics identifies acetyl-coenzyme A synthetase as a target for malaria treatment and prevention” (Cell Chemical Biology, 2022) can be followed below.

Holding throughout (assay type): cell-based
For assay [1], the system named is P. falciparum Dd2:A597V (CRISPR edited PfAcAS). Nature of the assay: Blood-stage dose-response assay, CRISPR-edited Dd2:A597V line. Conditions: Plasmodium falciparum, mean ± SD, n bioreplicates. Here is the method:
(§1) For in vitro–selected lines, drug susceptibility was measured by SYBR Green I–based assay ([Johnson et al., 2007]; [Smilkstein et al., 2004]). Ring-stage parasites were cultured for 72 hr at 1% hematocrit and 1% starting parasitemia in 384-well black clear-bottom plates containing test compounds plated in triplicate in 12-point serial dilutions. Lysis buffer (0.16% w/v saponin, 1.6% Triton X-100, 5 mM EDTA, and 20 mM Tris-HCl, pH 7.4) with SYBR Green I fluorescent dye (Invitrogen) was added, and fluorescence readings were taken (excitation at 494 nm, emission at 530 nm). Alternatively, Dd2-B2 ring-stage cultures at 0.3% parasitemia and 1% hematocrit were exposed for 72 hr to a range of ten drug concentrations that were 2-fold serially diluted in duplicates along with drug-free controls. Parasite survival was assessed by flow cytometry on an Accuri C6 (BD Biosciences) using SYBR Green and MitoTracker Deep Red FM (Life Technologies) as nucleic acid stain and vital dyes respectively. EC50 values were calculated using a nonlinear regression curve fit in Prism Software version 8 (GraphPad).
(§2) Mutant PfAcAS-A597V and PfAcAS-T648M parasites were generated using CRISPR/Cas9. The guide RNAs for PfAcAS-A597V (5′-[…]-3′; 5′-[…]-3′) and for PfAcAS-T648M (5′-[…]-3′) were designed using Benchling (https://benchling.com/) to targeting sites in PfAcAS that were 6-14 bp upstream of the A597 codon and 6 bp downstream of the T648 codon respectively. Complementary oligos encoding the gRNA sequences (5′- tatt[…]-3’ / 5’-aaac[…]-3’; 5’-tatt[…]-3’ / 5’-aaac[…]-3’ and 5’- tattg[…]-3’ / 5’-aaac[…]c-3’ ) were phosphorylated using T4 polynucleotide kinase and annealed (95°C for 5 min, then step down of 5°C/min to 25°C) prior to ligation into the BbsI-digested pDC2-coCas9-U6.2-hDHFR plasmid ([Lim et al., 2016]). The donor template for PfAcAS-A597V was synthesized (ThermoFisher) as a 700 bp Genestring fragment spanning position 1468 to 2168 of the PfAcAS gene, and the donor for PfAcAS-T648M synthesized as a 829 bp fragment spanning position 1468 to 2297 and inserted into the AatII/EcoRI sites of the pDC2-coCas9-gRNA-hDHFR plasmid by Gibson assembly. Ring-stage parasites (Dd2) at 5% parasitemia were transfected by electroporation (BioRad Gene Pulser II at 0.310 kV and 950 μF) with 50 μg of each plasmid (plasmid 1: pDC2-coCas9-AcAS-A597V-gRNA1-hDHFR, plasmid 2: pDC2-coCas9-gRNA2-hDHFR, or plasmid 3: pDC2-coCas9-AcAS-T648M-gRNA1-hDHFR), and parasites selected for 10 days with 2.5 nM WR99210 (Jacobus Pharmaceuticals), followed by removal of drug pressure. After confirmation of editing in the bulk culture, clones were isolated by serial limiting dilution and confirmed by Sanger sequencing after PCR amplification from genomic DNA using forward primer 5′-[…]-3′ and reverse primer 5′-[…]-3′ (for A597V) and 5′-[…]-3′ (for T648M).

Assay [2] deals with P. falciparum Dd2-B2. The experiment in a line: Blood-stage dose-response assay (72 hr), Dd2 / Dd2-B2 parent. The following applies: Plasmodium falciparum, DD2, read-out: Dd2-B2 parent EC50 ± SD (nM). The procedure:
(§3) The 3D7-A10 clone has been used in previous in vitro drug selection and sequencing efforts ([Cowell et al., 2018]). Dd2 parasites were obtained from T. Wellems (NIAID, NIH). Dd2-B2 is a genetically homogeneous line that was cloned from Dd2 by limiting dilution in the Fidock lab. Parasite strains were cultured in 3-5% human O+ hematocrit in RPMI 1640 (Life Technologies) supplemented with 28 mM NaHCO3, 25 mM HEPES, and hypoxanthine ([…]). Depending on the parasite line, the media either contained gentamycin (25 μg/mL), or no antibiotic and was additionally supplemented with 0.5% AlbuMAX II (Life Technologies) and/or O+ human serum (heat inactivated and pooled). Blood and serum products were obtained from Interstate Blood Bank. Cultures were maintained at 37°C in 1.1% O2, 4% CO2, and 95% N2. Parasite populations were synchronized by 5% sorbitol treatment ([Lambros and Vanderberg, 1979]).
as §1

The test system of assay [3] is P. falciparum Dd2:T648M (CRISPR edited PfAcAS). The experiment in a line: Blood-stage dose-response assay, CRISPR-edited Dd2:T648M line. The following applies: Plasmodium falciparum, mean ± SD, n bioreplicates. The procedure: as §1, §2
Assay [4] concerns P. falciparum 3D7-A10. The experiment in a line: Blood-stage dose-response assay (SYBR Green I, 72 hr), 3D7 / 3D7-A10 parent. The following applies: Plasmodium falciparum, mean ± SD, n bioreplicates, read-out: 3D7-A10 parent EC50 ± SD. Here is the method:
as §3, §1

For assay [5], the system named is histone acetylation in P. falciparum 3D7-A10. Nature of the assay: Histone acetylation Western blot, wild-type 3D7-A10. The following applies: trophozoites, 3 h exposure. For orientation: A western blot detects proteins with antibodies after separation by electrophoresis.
Method: Synchronous trophozoite-stage (24-32hr post-invasion) cultures at 3–5% parasitemia and 2% hematocrit in complete medium were exposed to test compounds for 3 hr at 37°C. […] DMSO was tested at 0.1% as the vehicle-only control. Following drug exposure, parasites were isolated via saponin lysis ice-cold 0.1% saponin in phosphate-buffered saline (PBS). Isolated parasites were washed 3x in ice-cold PBS containing protease inhibitor cocktail (cOmplete mini, Roche) and lysed in 1x Laemmli Sample Buffer (Biorad) with 5% beta-mercaptoethanol (Sigma-Aldrich). Samples were heated at 99°C for 10 min before centrifugation. Equal quantities of solute were separated on Protean TGX Precast Gels (4–20% gradient) in Tris-SDS-glycine buffer, transferred to nitrocellulose membrane by iblot (Invitrogen), and blocked for 1h in tris-buffered saline (TBS) with 5% skim milk powder. Blocked membranes were probed with antibodies recognising tetra-acetylated H4 (H4ac4, Sigma-Aldrich 06–866), H4K8ac (CST #2594), H3K9ac (CST #9649) or H3 (CST #4499), at 1:1000 dilution, and PfBiP ([Shonhai et al., 2007]) (at 1:5000 dilution) in 3% milk powder TBS with 0.1% Tween 20 at 4°C overnight and with 800CW goat α-rabbit IgG (Licor) at 1:10,000 dilution. Membranes were visualised using a Licor Odyssey CLX imaging system and quantified using ImageJ.

With `CCN(CC)Cc1cc(Nc2ccnc3cc(Cl)ccc23)ccc1O` [Amodiaquine], the 50% effective concentration (EC50) (commonly the concentration at which the effect is half-maximal) in assay [1] is 0.021 ± 0.0025 µM; in assay [2], 19 ± 6 nM; in assay [3] it was 0.02 ± 0.0086 µM; in assay [4], 0.0074 ± 0.0018 µM.
The corresponding values for `OC(c1cc(C(F)(F)F)nc2c(C(F)(F)F)cccc12)C1CCCCN1` (stereo not drawn) [Mefloquine] are 0.031 ± 0.017 µM, 15 ± 5.7 nM, 0.02 ± 0.011 µM and 0.018 ± 0.0046 µM.
On to `CC(/C=C/C(=O)NO)=C\[C@@H](C)C(=O)c1ccc(N(C)C)cc1` [trichostatin A], for which, in assay [5], the “acetylation of H4K8ac, H3K9ac and tetra-acetylated H4 (H4Ac4) histone markers relative to DMSO” value is recorded as “significant increase”.
